Source: BindingDB's records for patent US11472811 (BEIGENE, LTD., 2022)

Target: Adenosine receptor A2a (Homo sapiens, UniProt P29274)
Test: Luciferase Reporter Assay
Experimental: HEK293-A2AR-luc2p/CRE/Hygro cells were seeded at a density of 5,000 cells/well in DMEM with 1% FBS and 1 U/mL adenosine deaminase (ADA) (Sigma). After 18 h, the cells were treated with 3 nM CGS21680 plus a series dilution of A2AR antagonist, the compounds disclosed herein at the concentration of 0.1 10000 nM, prepared in DMEM with 1% FBS. After 5 h incubation, the luciferase activity in cells were measured using the Bright-Glo Luciferase Assay System (Promega) according to manufacturer's instructions. The luminescence signal was measured using a PHERAstar FS plate reader (BMG Labtech). […] Maximal luminescence intensity was determined in the presence of 3 nM CGS21680 and was set as 100%. The IC50 value was calculated from a dose dependent inhibition curve across the range of compound concentrations.

Adenosine receptor A2a, sequence (P29274 whole entry): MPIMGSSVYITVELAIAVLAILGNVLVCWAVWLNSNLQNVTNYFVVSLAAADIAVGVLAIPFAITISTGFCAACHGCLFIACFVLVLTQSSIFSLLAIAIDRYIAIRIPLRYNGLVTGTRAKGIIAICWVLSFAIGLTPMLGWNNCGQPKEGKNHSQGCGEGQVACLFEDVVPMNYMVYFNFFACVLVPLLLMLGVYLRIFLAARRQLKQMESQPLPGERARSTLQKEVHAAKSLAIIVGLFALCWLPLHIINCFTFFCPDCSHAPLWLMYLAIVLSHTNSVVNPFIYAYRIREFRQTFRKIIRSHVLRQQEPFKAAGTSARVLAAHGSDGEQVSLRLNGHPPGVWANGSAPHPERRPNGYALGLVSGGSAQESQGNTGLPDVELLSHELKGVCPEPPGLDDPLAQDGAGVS

`C[C@@](C(=O)O)(c1ccccc1)n1ncc2c1nc(N)n1nc(-c3ccco3)nc21` [US11472811, Example Intermediate-Ia] was tested, and the IC50 was 194 nM.
